Test results: PubChem BioAssay (NCI)
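Dose response: 5 concentrations. Exposure: 48 h. Format: 96-well plates. Endpoint: linear interpolation; highest concentration if not reached. Abbreviation: GI50, concentration required for 50% inhibition of growth. TGI marks complete inhibition of growth.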

Tests used:
Assay in all cases: DTP human tumour cell line panel, 48 h
HT29 colon = system: HT29 colon
LOX IMVI melanoma = system: LOX IMVI melanoma
MDA-MB-231 breast = system: MDA-MB-231 breast
MOLT-4 leukemia = system: MOLT-4 leukemia
NCI-H226 lung = system: NCI-H226 lung
NCI-H23 lung = system: NCI-H23 lung
OVCAR-5 ovarian = system: OVCAR-5 ovarian
SK-MEL-2 melanoma = system: SK-MEL-2 melanoma
SK-MEL-28 melanoma = system: SK-MEL-28 melanoma
SW-620 colon = system: SW-620 colon

Structure (SMILES)	TGI (HT29 colon) [µM]	TGI (LOX IMVI melanoma) [µM]	TGI (MDA-MB-231 breast) [µM]	TGI (MOLT-4 leukemia) [µM]	TGI (NCI-H226 lung) [µM]	TGI (NCI-H23 lung) [µM]	TGI (OVCAR-5 ovarian) [µM]	TGI (SK-MEL-2 melanoma) [µM]	TGI (SK-MEL-28 melanoma) [µM]	TGI (SW-620 colon) [µM]	GI50 (HT29 colon) [µM]	GI50 (LOX IMVI melanoma) [µM]	GI50 (MDA-MB-231 breast) [µM]	GI50 (MOLT-4 leukemia) [µM]	GI50 (NCI-H226 lung) [µM]	GI50 (NCI-H23 lung) [µM]	GI50 (OVCAR-5 ovarian) [µM]	GI50 (SK-MEL-2 melanoma) [µM]	GI50 (SK-MEL-28 melanoma) [µM]	GI50 (SW-620 colon) [µM]
Oc1cc(Cl)cc2cccnc12	32.2	28	39.7	3.98	69.6	33.4	> 100	> 100	> 100	19.7	–	–	–	–	–	–	–	–	–	–
Cc1cc(/N=C/c2ccc(N(C)C)cc2)n(-c2ccccc2)n1	> 100	> 100	> 100	> 100	> 100	> 100	> 100	> 100	> 100	> 100	–	–	–	–	–	–	–	–	–	–
CC(C)c1cc2c(c(O)c1O)[C@@]1(C(=O)O)CCCC(C)(C)[C@@H]1CC2	30.7	53	86.3	37.2	29.4	46.9	40	41.6	29.8	> 100	–	–	–	–	–	–	–	–	–	–
CC1(C)[C@@H]2CC[C@@]1(C)CN(CCC[N+](C)(C)C)C2	> 100	> 100	> 100	> 100	> 100	> 100	> 100	> 100	> 100	> 100	–	–	–	–	–	–	–	–	–	–
O=[N+]([O-])C(=C(Nc1cccc2cccnc12)Nc1cccc2cccnc12)C(Cl)=C(Cl)Cl	> 100	> 100	29.6	> 100	> 100	> 100	> 100	> 54	> 100	> 100	–	–	–	–	–	–	–	–	–	–
C=C(C(=O)OCC)C(=O)OCC	> 100	> 100	> 100	> 100	> 100	> 100	> 100	> 100	> 100	> 100	–	–	–	–	–	–	–	–	–	–
COc1cnc2c(c1)C(=O)c1c-2n(CCCN2CCOCC2)c(=O)c2cc(Cl)ccc12	> 100	0.532	> 100	> 100	> 100	> 100	> 100	> 100	> 100	> 100	0.233	0.152	> 100	0.267	0.396	0.308	> 100	30.5	> 100	0.232
CC(=NNC(=S)Nc1ccccc1)c1cccc(C(C)=NNC(=S)Nc2ccccc2)n1	> 100	> 100	> 100	> 30.1	> 44	> 100	> 100	> 100	> 100	> 100	–	–	–	–	–	–	–	–	–	–
CCOS(C)(=O)=O	> 100	> 100	> 100	> 100	> 100	> 100	> 100	> 100	> 100	> 100	–	–	–	–	–	–	–	–	–	–
Cn1c(SCc2ccc(F)cc2)nnc1C12CC3CC(CC(C3)C1)C2	39.2	45.6	94.5	57.1	> 100	> 100	> 100	> 100	86.2	> 100	–	–	–	–	–	–	–	–	–	–
O=C1c2cc(-c3ccccc3)cnc2S(=O)(=O)N1c1ccc(Br)cc1	> 100	> 100	> 100	> 100	> 100	> 100	> 100	> 100	> 100	> 100	–	–	–	–	–	–	–	–	–	–
CC(C)(C)[Si](C)(C)OCC1OC(n2ccc(=O)[nH]c2=O)C(O[Si](C)(C)C(C)(C)C)/C1=C/C#N (stereo not given)	> 47.7	> 51.2	> 83.5	> 21.1	> 75.8	> 100	> 100	42.4	> 71.5	> 100	–	–	–	–	–	–	–	–	–	–
N[C@@H](Cc1ccccc1)C(=O)N1CCC[C@@H]1P(=O)(Oc1ccccc1)Oc1ccccc1	> 100	> 100	> 100	> 100	> 100	> 100	> 100	> 100	> 100	> 100	–	–	–	–	–	–	–	–	–	–
CSC1=N/C(=C\c2ccc(C)cc2)C(=O)N1CN1CCCCC1	> 100	> 100	> 100	> 100	> 100	> 100	> 100	> 100	> 100	> 100	–	–	–	–	–	–	–	–	–	–
O=C1CC2(CCC(O)(c3ccc4ccccc4c3)C(C(=O)c3ccc4ccccc4c3)C2)C(=O)c2ccccc2N1 (stereo not given)	> 100	> 100	> 100	> 100	> 100	> 100	> 100	> 100	> 100	> 100	–	–	–	–	–	–	–	–	–	–
CCOC(=O)c1cccc(N=Nc2nc[nH]c2/C=C/C(=O)OC)c1	> 100	> 100	> 100	40.2	> 100	> 100	> 100	63.5	> 100	> 100	–	–	–	–	–	–	–	–	–	–
CCNC(=S)NNC(=O)C12CC3CC(CC(C3)C1)C2	> 100	> 100	> 100	> 100	> 100	> 100	> 100	> 100	> 100	> 100	–	–	–	–	–	–	–	–	–	–
O=C(/C=C/c1ccccc1)Oc1ccc(C(=O)/C=C/c2ccccc2)cc1	17.7	17.7	23	16.8	> 100	22.4	21.4	> 66.1	21.3	18.6	–	–	–	–	–	–	–	–	–	–
CC(C)SC(=S)Sc1c(Cl)c(Cl)nc(Cl)c1Cl	12.5	6.68	26.7	8.69	50.3	29	33.1	22.4	> 100	15.9	–	–	–	–	–	–	–	–	–	–
CCOc1cc(/C=C2/C(C)=NN(c3cccc(Cl)c3)/C2=N/c2nc3ccccc3s2)ccc1O	> 100	> 100	59.6	> 100	68	50.7	> 100	41.4	> 100	> 100	–	–	–	–	–	–	–	–	–	–
N#CC(C#N)=C1SC(=Nc2ccccc2)C(=Nc2ccccc2)N1c1ccccc1	> 69.9	24.4	26.6	11.8	44.7	97.7	47.3	44.3	> 58	11.5	–	–	–	–	–	–	–	–	–	–
